Laboratory results from article PMC8164773 (European Journal of Medicinal Chemistry, 2021).

Tests used:
SARS-CoV-2 = type: cell-based; conditions: read-out: EC50 +CP
[1] = Solubility studies of bisulfite prodrugs in H2O; type: physicochemical; conditions: aqueous media, 25 °C

Structure (SMILES)	EC50 (SARS-CoV-2) [nM]	increase in molar solubility compared to GC376 [1]
COc1cccc2[nH]c(C(=O)N[C@@H](CC3CC3)C(=O)N[C@H](C=O)C[C@@H]3CCNC3=O)cc12 [1k]	270 ± 400	–
CC(C)C[C@H](NC(=O)OCc1ccccc1)C(=O)N[C@@H](C[C@@H]1CCNC1=O)C(O)S(=O)(=O)[O-].[K+] (some centres unmarked) [3a]	–	approximately 30%
